This note sets out measurements from patent publication US9555024B2, “Substituted (E)-N′-(1-phenylethylidene)benzohydrazide analogs as histone demethylase inhibitors” (University of Utah Research Foundation, priority 2011, dated 2017).

The target of one assay is MAO A (Homo sapiens (Human), UniProt P21397). The experiment in a line: Monoamine Oxidase assay (MAO-Glo Assay Kit). The settings on record: result in words.
Another assay deals with MAO B (Homo sapiens (Human), UniProt P27338). The experiment in a line: Monoamine Oxidase assay (MAO-Glo Assay Kit). Conditions: result in words.
Sequence of MAO B (P27338 whole entry): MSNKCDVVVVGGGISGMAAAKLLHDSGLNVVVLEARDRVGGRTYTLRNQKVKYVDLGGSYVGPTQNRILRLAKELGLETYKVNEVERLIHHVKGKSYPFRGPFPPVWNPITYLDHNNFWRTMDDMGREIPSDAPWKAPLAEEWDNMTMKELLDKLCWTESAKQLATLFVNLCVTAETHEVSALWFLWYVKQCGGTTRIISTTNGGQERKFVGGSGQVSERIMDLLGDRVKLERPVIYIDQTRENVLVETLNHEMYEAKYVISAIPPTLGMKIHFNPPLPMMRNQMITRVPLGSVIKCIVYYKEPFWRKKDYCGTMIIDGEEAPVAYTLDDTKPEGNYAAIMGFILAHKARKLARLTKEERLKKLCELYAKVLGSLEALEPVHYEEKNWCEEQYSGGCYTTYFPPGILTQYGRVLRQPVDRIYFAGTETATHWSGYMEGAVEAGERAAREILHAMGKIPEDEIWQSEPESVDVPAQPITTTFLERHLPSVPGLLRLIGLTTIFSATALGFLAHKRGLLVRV
Another assay relates to heme oxygenase (HMOX). Description: Real-Time PCR of heme oxygenase (HMOX) expression in T-47D cells. It counts as cell-based, human. Conditions: normalized to HPRT and β-actin. In general terms: Quantitative PCR measures a nucleic acid by following its amplification.
The next assay deals with T-47D cells. The experiment in a line: Cell Viability Assay (ATPlite). It counts as cell-based. The settings on record: Homo sapiens, T47D, 96-hours of incubation, read-out: Cell Growth, IC50.

Sequence of MAO A (P21397 whole entry): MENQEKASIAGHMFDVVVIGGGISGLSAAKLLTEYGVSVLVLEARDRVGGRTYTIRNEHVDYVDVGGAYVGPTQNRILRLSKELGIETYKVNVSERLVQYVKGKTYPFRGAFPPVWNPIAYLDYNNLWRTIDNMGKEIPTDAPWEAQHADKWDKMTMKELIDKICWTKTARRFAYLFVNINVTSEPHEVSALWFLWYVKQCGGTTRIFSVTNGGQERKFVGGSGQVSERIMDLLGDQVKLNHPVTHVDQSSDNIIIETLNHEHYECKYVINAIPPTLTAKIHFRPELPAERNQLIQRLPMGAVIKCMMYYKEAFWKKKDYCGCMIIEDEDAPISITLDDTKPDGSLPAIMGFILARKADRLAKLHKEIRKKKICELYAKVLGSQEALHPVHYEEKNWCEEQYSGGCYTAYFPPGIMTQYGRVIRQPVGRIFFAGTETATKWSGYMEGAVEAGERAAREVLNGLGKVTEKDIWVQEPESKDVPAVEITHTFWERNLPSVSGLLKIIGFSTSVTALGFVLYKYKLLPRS
Experimental for MAO A: Recombinant (expressed in baculovirus infected BTI insect cells) monoamine oxidase A and monoamine oxidase B (Catalog No. M7316 and M7441, respectively) were purchased from Sigma-Aldrich Co. LLC. […] MAO-Glo™ Assay Kit was purchased from Promega Corporation (Madison, Wis.).
Briefly, 6.25 μL of test compound was added to each well of a 384-well plate. Enzyme (either MAO A or B) was added (12.5 μL in 2× buffer containing 1 μg protein) and allowed to incubate for 5 minutes. Finally, 6.25 μL of 4×MAO substrate was added to each well. Following a one hour incubation, 25 μL of Luciferin detection reagent was added to each well, and incubated for 20 minutes. Luminescence was then measured on an Envision microplate reader.
IC50 values are determined using GraphPad Prism 5 software. The data were entered as an X-Y plot into the software as percent inhibition for each concentration of the drug. The concentration values of the drug were log transformed and the nonlinear regression was carried out using the “sigmoidal dose-response (variable slope)” option within the GraphPad software to model the data and calculate IC50 values.
Experimental for heme oxygenase (HMOX): Briefly, T-47D cells were seeded in 96-well plates and treated with concentrations of inhibitors as indicated. Cell lysates, Reverse transcription, and single color syber green realtime PCR was performed using the Cells-to-Ct kit (Life Technologies). Transcript levels of heme oxygenase (HMOX) were normalized to hypoxanthine phosphoribosyltransferase (HPRT) and β-actin.

Turning to `N[C@@H]1CC1c1ccccc1` (some centres unmarked) [tranylcypromine, reference compound], the “activity against MAO A” value on MAO A is given as “exhibited activity”. The “activity against MAO B” value on MAO B was “exhibited activity”. For the compound `O=C(N/N=C/c1ccccc1O)c1ccc(O)cc1` [Compound 1], the “activity against MAO B” value at MAO B was “comparable activity to tranylcypromine”. Regarding `C/C(=N\NC(=O)c1ccccc1)c1c(O)cccc1O` [Compound 14], the “HMOX expression (fold-induction)” value in the assay on heme oxygenase (HMOX) is 1.1 fold-induction. The IC50 with T-47D cells is > 10 µM.

What is called IC50 is the concentration needed to halve the response being measured.
